US8663658B2, “Revaprazan-containing solid dispersion and process for the preparation thereof” (Yuhan Corporation, priority 2006, dated 2014)
Converted amounts (≈) assume the structure as drawn. Read-outs that look alike come from different tables or passages of the source.

Legend:
[1] = background art; cited from earlier work
[2] = Solubility of revaprazan-containing solid dispersion in purified water; format: physicochemical; settings: thermodynamic from solid, 25° C., solid dispersion containing 1 g revaprazan in 50 ml, stirred up to 6 hours, UV 270 nm
Description: Solubility of a revaprazan-containing solid dispersion was measured in purified water. A solid dispersion containing 1 g of revaprazan was added to a beaker containing 50 ml of purified water, which was then strongly stirred using a magnetic stirrer at 25° C. in a water bath for 6 hours. After 1, 2, and 6 hours, each sample was collected and filtered using a 0.45 μm filter. The filtrate was diluted with methanol having such an amount that absorbance of the filtrate is in the range from 0.2 to 1.0. Then, absorbance of the diluted filtrate was measured at 270 nm using a UV spectrophotometer (Agilent 8453, Agilent technologies, USA). From the obtained absorbance value, concentrations of revaprazan were obtained using a standard curve.
About 20 mg of revaprazan standard was dissolved in methanol until the total volume of the solution reached 10 ml. 1 ml of the resultant solution was added to a 100 ml flask and then purified water was added thereto to obtain a standard stock solution. The standard stock solution was diluted with purified water to obtain 2 μg/ml, 5 μg/ml, 8 μg/ml, and 10 μg/ml of standard solution. Each absorbance of the standard solutions was measured at an absorption maximum wavelength of 270 nm to obtain a standard curve. The standard curve was moderately linear passing through almost (0.0) (coefficient of correlation r^2>0.98).

[3] = Adhesiveness and agglutination test (Carr's index from bulk and tapped density); format: physicochemical
Description: The bulk density and tapped density of revaprazan powder and the surface-modified solid dispersions prepared according to Examples 3 and 6 were measured and their Carr's indexes were obtained in order to measure flowability thereof. About 3 g of a solid dispersion was carefully added to a plastic measuring cylinder and the volume thereof was measured to obtain the bulk density. And then, this was subjected to tapping 3,000 times using a tapped density meter to measure the volume and the tapped density was obtained. From the obtained bulk density and tapped density, Carr's index was calculated in order to evaluate flowability.

solubility [2]: 173 µg/mL (≈ 477 µM)
Carr's index [3]: ≥ 40%
Carr's index ([3]; from bulk density and tapped density (3,000 taps), flowability): 41.2
SMILES: Cc1nc(Nc2ccc(F)cc2)nc(N2CCc3ccccc3C2C)c1C (stereo not shown) [Revaprazan powder, 5,6-dimethyl-2-(4-fluorophenylamino)-4-(1-methyl-1,2,3,4-tetrahydroisoquinolin-2-yl)pyrimidine]
water-solubility [1]: less than 0.2 mg/mL
